What all share (test): growth of human tumour cells (NCI), 48 h
Assay [1] relates to ACHN renal.
In assay [2] the test system is DLD-1 colon.
Assay [3] deals with DMS 273 small cell lung.
Assay [4] deals with HL-60(TB) leukemia.
The test system of assay [5] is HT29 colon.
The subject of assay [6] is IGROV1 ovarian.
For assay [7], the system named is SK-MEL-28 melanoma.
The test system of assay [8] is CAKI-1 renal.
Assay [9] relates to HOP-92 NSCLC.
Assay [10] relates to MCF7 breast.

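The compound was tested at five concentrations on cells cultured in 96-well plates, with a 48-hour exposure period. GI50 = concentration required for 50% inhibition of growth. At the TGI there is no net growth.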

With `COC(=O)c1ccc(N=NN(C)CO)cc1`, the TGI in [1], in assay [2], in assay [3], in assay [4], in [5] and in [6] was greater than 100 µM each time. Besides, the TGI in [7] is greater than 100 µM.
Turning to `O=C1C(=O)N(c2ccc(Cl)c(Cl)c2)C(=O)C(=O)C1c1nc2ccccc2o1`, the TGI in assay [1] was greater than 100 µM; in [8] it was greater than 100 µM; in assay [2], greater than 100 µM; in assay [3], greater than 100 µM; in [4] it was 53 µM; in assay [9], greater than 100 µM. In addition, the TGI in assay [5], in assay [6] and in assay [7] was greater than 100 µM in each case.
Regarding `COc1ccc2ccc([Se]c3ccc4ccc(OC)cc4c3)cc2c1`, the TGI in assay [1], in [8], in assay [2], in assay [3], in assay [4] and in [9] was greater than 100 µM throughout. The TGI in assay [5], in assay [6] and in [7] was greater than 100 µM in each case.
Regarding `CCOC(=O)CC1=CSC2=NCCN12`, the TGI in assay [1], in [8], in [2], in assay [3], in [4] and in assay [9] was greater than 100 µM each time. Also, the TGI in assay [5], in assay [6] and in assay [7] was greater than 100 µM in each case.
As to `O=C(O)C12C3CCCC1C2CC3` (centres undefined), the TGI in assay [1], in assay [8], in assay [2], in [4], in assay [9] and in assay [5] was greater than 100 µM each time. The TGI in assay [6] and in assay [7] was greater than 100 µM in each case.
As for `CC1NOC(=O)C1N=Nc1ccccc1Cl` (centres undefined), the TGI is greater than 100 µM in assay [1]; greater than 100 µM in assay [8]; greater than 100 µM in assay [2]; 52.2 µM in assay [4]; 54.6 µM in [9]; greater than 100 µM in assay [6]. The compound also came in with a TGI in [7] greater than 100 µM.
For `C[C@]12CCC(=O)C(O)=C1CC[C@@H]1[C@@H]2CC[C@]2(C)C(=O)CC[C@@H]12`, the TGI in assay [1], in assay [8], in [2], in assay [4], in [9] and in assay [5] was greater than 100 µM in each case. For the same compound, the TGI in assay [6], in assay [10] and in assay [7] was greater than 100 µM throughout.
Take `c1ccc(N=C2c3ccccc3C3=NCCCN32)cc1`: the TGI in assay [1] is greater than 100 µM; in [8], greater than 100 µM; in assay [2] it was greater than 100 µM; in [3], greater than 100 µM; in [9], 72.2 µM; in assay [5], greater than 100 µM. The TGI in assay [6] and in assay [7] was greater than 100 µM each time.
Take `CCOC(=O)c1ccc(N2C(=O)/C(=C\OC)c3ccccc3C2=O)cc1`: the TGI in [1], in assay [8], in assay [3], in assay [5], in [6] and in assay [7] was greater than 100 µM each time.
With `CCOC(=O)C(=O)Nc1c(N(CC)CC)n2ccccc2nc1=O`, the TGI in assay [1], in [8], in [2], in assay [3], in assay [9] and in [5] was greater than 100 µM each time. The same compound came in with a TGI in assay [6] greater than 100 µM.
Regarding `C/C=C(\C)C(=O)O[C@H]1C=CC(=O)O[C@H]1CNC(=O)[C@H](C)O`, the GI50 in [1] is 15.7 µM; in assay [8], 26.8 µM; in assay [4], 16.8 µM; in [9], 14.6 µM; in assay [5] it was 18.9 µM; in [6], 22.6 µM. The GI50 in assay [10] is 19.7 µM; in assay [7], 17.4 µM. In addition, the TGI in assay [1] stood at 29.9 µM; in assay [8], 44.4 µM; in assay [4], 39.3 µM; in [9] it was 28.9 µM; in assay [5], 42.6 µM; in [6], 53.3 µM. The TGI came to 42.3 µM in assay [10] and 32.4 µM in assay [7].
Turning to `O=C(C(Br)Br)C(Br)C(Br)c1ccccc1` (centres undefined), the GI50 in assay [1] is 1.68 µM; in assay [8] it was 1.78 µM; in assay [4] it was 5.82 µM; in assay [9], 6.21 µM; in assay [5] it was 2.5 µM; in [6], 3.56 µM. Moreover, the results for the GI50 in assay [10] and in [7] were 3.58 µM and 6.7 µM, respectively. Further, the TGI in [1] worked out at 3.18 µM; in assay [8], 3.37 µM; in assay [4], 25.7 µM; in [9], 19.8 µM; in assay [5], 5.39 µM; in [6], 11.5 µM. Moreover, the TGI in assay [10] is 13.4 µM; in assay [7], 22.1 µM.
`CC(C)(O)C1OCC(C2CCC3(C)C4=CCC5C(C)(C)C(O)CCC5(C)C4CCC23C)CC1O` (centres undefined): the TGI in [1] was 28.6 µM; in assay [8], 29.4 µM; in assay [4], greater than 100 µM; in assay [9], 27.6 µM; in assay [5], 25.7 µM; in [6], 31 µM. Also, the TGI was 23.8 µM in [10] and 29.2 µM in assay [7].
As to `O=C(NC(=S)Nc1ccc(Cl)cc1)c1ccccc1`, the GI50 in assay [1] was greater than 100 µM; in assay [8], greater than 79.7 µM; in [4], greater than 100 µM; in [9], 8.63 µM; in assay [5], greater than 100 µM; in assay [6], greater than 87.7 µM. Moreover, the GI50 was 2.85 µM in assay [10] and greater than 100 µM in assay [7]. Also, the TGI in assay [1] was greater than 100 µM; in [8] it was greater than 100 µM; in assay [4], greater than 100 µM; in assay [9], 68.5 µM; in assay [5], greater than 100 µM; in [6] it was greater than 100 µM. For the same compound, the TGI in assay [7] was greater than 100 µM.

The record behind these values is PubChem BioAssay (NCI).
